Drawing on PubChem BioAssay (NCI), this text covers GI50 and TGI for 6 compounds.

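Tested at 5 concentrations; 48 h exposure; 96-well plates; endpoints linearly interpolated, else capped at highest concentration. Here, GI50 denotes the concentration required for 50% inhibition of growth. TGI is the concentration that stops growth completely.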

Experiment in all cases: DTP human tumour cell line panel, 48 h
Assay [1] has as its system CCRF-CEM leukemia.
Assay [2] deals with HOP-62 NSCLC.
For assay [3], the system named is EKVX NSCLC.
Assay [4] relates to SR leukemia.
Assay [5] concerns HCC-2998 colon.
Assay [6] deals with SNB-19 CNS.
For assay [7], the system named is SK-OV-3 ovarian.
The test system of assay [8] is ACHN renal.
For assay [9], the system named is SK-MEL-5 melanoma.
In assay [10] the test system is MDA-MB-231 breast.

For `CCOc1cc(/C=C/C(=O)CC(=O)/C=C/c2ccc(OC(=O)CNc3nc4ccc(OC)cc4s3)c(OCC)c2)ccc1OC(=O)CNc1nc2ccc(OC)cc2s1`, the GI50 is 1.96 µM in [1]; 23 µM in [2]; 3.48 µM in assay [3]; 1.77 µM in assay [4]; 3.16 µM in [5]; 6.02 µM in assay [6]. The GI50 was 9.89 µM in assay [7], 14.2 µM in [8], 5.25 µM in assay [9] and 13.8 µM in assay [10]. Moreover, the TGI in [1] is 5.46 µM; in [2] it was more than 100 µM; in assay [3] it was 11.7 µM; in assay [4], 4.66 µM; in assay [5] it was 14.8 µM; in [6], 19.4 µM. Besides, the TGI came out at 53 µM in [7], 60.2 µM in assay [8], 17.2 µM in [9] and 60 µM in [10].

Turning to `C=CC(=O)N1CCN([C@@H](CC2CC2)c2ccc([C@H](C)Nc3ncc4c(n3)N(CC)C(=O)OC4)cc2)CC1`, the GI50 is 4.29 µM in assay [1]; 12.4 µM in assay [2]; 14.1 µM in assay [3]; 4.05 µM in [4]; 13 µM in assay [5]; 14.4 µM in assay [6]. Besides, the GI50 in assay [7] is 14.5 µM; in [8] it was 14.5 µM; in [9], 15.4 µM; in assay [10] it was 12 µM. Moreover, the concentration for total growth inhibition (TGI) in assay [1] is 25.2 µM; in [2] it was 32.9 µM; in assay [3] it was 27.6 µM; in assay [4], 22.7 µM; in assay [5], 28 µM; in assay [6] it was 27.8 µM. The TGI in assay [7] worked out at 30.2 µM; in assay [8], 27.9 µM; in assay [9] it was 30 µM; in [10], 27.4 µM.

Regarding `CC(C)Cn1cnc2c(N)nc3ccccc3c21`, the GI50 was more than 49 µM in assay [1]; 22.5 µM in assay [2]; 26.2 µM in assay [3]; more than 100 µM in [4]; more than 63.5 µM in assay [5]; more than 93.3 µM in [6]. Moreover, the GI50 was more than 100 µM in assay [7], 27.9 µM in assay [8], 18.4 µM in [9] and 46 µM in assay [10]. Besides, the TGI in [1] was more than 100 µM; in assay [2] it was more than 64.1 µM; in assay [3] it was more than 100 µM; in [4] it was more than 100 µM; in assay [5], more than 100 µM; in assay [6], more than 100 µM. Further, the TGI in assay [7] is more than 100 µM; in assay [8], more than 100 µM; in [9], 50.3 µM; in [10], more than 100 µM.

`Clc1ccc(NCNC2Nc3ccccc3N2)cc1Cl`: the TGI in assay [1], in [2], in assay [3], in assay [4], in [5] and in assay [6] was more than 100 µM in each case. Further, the TGI was more than 100 µM in assay [7], more than 100 µM in assay [8], 54.6 µM in assay [9] and more than 100 µM in [10].

For `CC(C)OC(=O)Nc1c([N+](=O)[O-])cc(C(F)(F)F)cc1[N+](=O)[O-]`, the TGI in assay [1], in assay [2], in assay [3], in assay [4], in assay [5] and in assay [6] was more than 100 µM throughout. The TGI in assay [7], in assay [8], in assay [9] and in assay [10] was more than 100 µM each time.

For `C/C(=C1\C(=O)Nc2ccccc21)c1cccc(/C(C)=C2/C(=O)Nc3ccccc32)n1`, the GI50 in [1] is 6.55 µM; in assay [2] it was 15.5 µM; in [3], 0.692 µM; in assay [4] it was 4.96 µM; in assay [5], 2.38 µM; in assay [6], 23.1 µM. In addition, the GI50 was 26.2 µM in assay [7], 8.56 µM in assay [8], 5.67 µM in [9] and 11.5 µM in [10]. For the same compound, the TGI was more than 100 µM in assay [1]; 74.1 µM in assay [2]; 5.4 µM in [3]; more than 100 µM in [4]; 5.7 µM in assay [5]; more than 100 µM in [6]. The TGI was more than 100 µM in assay [7], 48.1 µM in assay [8], 25.4 µM in assay [9] and 74.7 µM in assay [10].

As a reminder, the GI50 is the concentration that inhibits growth by half. In general, TGI refers to the concentration at which net growth stops.
